According to patent publication US11643438B2, “Antimicrobial peptides and methods of use” (priority 2018, dated 2023):
Values after ≈ are worked out from the molar mass of the structure shown. “Also recorded” adds a separate entry of the source. Like-named read-outs stand apart in the source and are kept apart here. Blank lines part the entries; values can stand above or below the compound they belong to.

What was measured:
Fusarium solani 243G2 = test: Antifungal MIC80/MFC assay, fungal pathogen panel
[1] = tested on: Aspergillus terreus 191A6; test: Antifungal MIC80/MFC assay, fungal pathogen panel
[2] = tested on: Candida albicans ATCC 10231; test: Antifungal MIC80/MFC assay, fungal pathogen panel; conditions: ATCC10231
[3] = tested on: Hamigera insecticola NRRL35442; test: Antifungal MIC80/MFC assay, fungal pathogen panel
[4] = tested on: Aspergillus fumigatus NRRL5109; test: Antifungal MIC80/MFC assay, fungal pathogen panel
[5] = tested on: Aspergillus niger FGSC A732; test: Antifungal MIC80/MFC assay, fungal pathogen panel; conditions: Aspergillus niger, FGSCA732
[6] = tested on: Aspergillus flavus NRRL485; test: Antifungal MIC80/MFC assay, fungal pathogen panel
[7] = tested on: Curvularia lunata NRRL6409; test: Antifungal MIC80/MFC assay, fungal pathogen panel
[8] = tested on: Aspergillus fumigatus NRRL6113; test: Antifungal MIC80/MFC assay, fungal pathogen panel
[9] = tested on: Mucor circinelloides 235C7; test: Antifungal MIC80/MFC assay, fungal pathogen panel
[10] = tested on: Candida krusei ATCC 6258 (Y-7179); test: Antifungal MIC80/MFC assay, fungal pathogen panel; conditions: Pichia kudriavzevii, ATCC6258
[11] = tested on: Rhizopus oryzae FGSC 9543; test: Antifungal MIC80/MFC assay, fungal pathogen panel; conditions: Rhizopus arrhizus, FGSC9543
[12] = tested on: Paecilomyces lilacinus 165E10; test: Antifungal MIC80/MFC assay, fungal pathogen panel; conditions: Purpureocillium lilacinum, 165E10
Candida albicans SC5314 [13] = test: Antifungal MIC80/MFC assay, fungal pathogen panel
[14] = tested on: Candida parapsilosis ATCC 22019 (Y-12969); test: Antifungal MIC80/MFC assay, fungal pathogen panel; conditions: Lodderomyces parapsilosis, ATCC22019
[15] = tested on: Cryptococcus neoformans H99; test: Antifungal MIC80/MFC assay, fungal pathogen panel
[16] = tested on: Candida tropicalis ATCC750 (Y-12699); test: Antifungal MIC80/MFC assay, fungal pathogen panel; conditions: Candida tropicalis, ATCC750
[17] = tested on: Aspergillus fumigatus MYA 3627; test: Antifungal MIC80/MFC assay, fungal pathogen panel; conditions: MYA3627
Alternaria brassicae = test: MIC/MFC against phytopathogenic (endophytic) fungi
P. glomerata = test: MIC/MFC against phytopathogenic (endophytic) fungi
Alternaria brassicicola = test: MIC/MFC against phytopathogenic (endophytic) fungi
Alternaria tennuissiema = test: MIC/MFC against phytopathogenic (endophytic) fungi
Fusarium tricinctum = test: MIC/MFC against phytopathogenic (endophytic) fungi
Fusarium oxysporum = test: MIC/MFC against phytopathogenic (endophytic) fungi
Mycosphaerella populorum = test: MIC/MFC against phytopathogenic (endophytic) fungi; conditions: Sphaerulina musiva
Nodulosporium spp. = test: MIC/MFC against phytopathogenic (endophytic) fungi
C. albicans SC5314 Flu^R = test: Ex vivo model of fungal keratitis (porcine cornea); set-up: species or system Candida albicans; conditions: C. albicans SC5314 Flu^R; 118A 0.1% (1 mg/ml), natamycin 5% (50 mg/ml), fluconazole 2% (20 mg/ml)
[18] = tested on: Aspergillus fumigatus NRRL5109; test: Ex vivo model of fungal keratitis (porcine cornea); conditions: for antifungal activity (fungal growth/infection), in words: Aspergillus fumigatus NRRL 5109, 0.1% 118A, 2% fluconazole, 5% natamycin, FIG. 13; for CFU: Aspergillus fumigatus NRRL5109, 118A 0.1% (1 mg/ml), natamycin 5% (50 mg/ml), fluconazole 2% (20 mg/ml)
Candida albicans SC5314 [19] = test: Ex vivo model of fungal keratitis (porcine cornea); conditions: for antifungal activity (fungal growth/infection), in words: 0.1% 118A, 2% fluconazole, 5% natamycin, FIG. 11; for CFU: 118A 0.1% (1 mg/ml), natamycin 5% (50 mg/ml), fluconazole 2% (20 mg/ml)

- MIC80 (Fusarium solani 243G2): 2.5 µM (≈ 1.76 µg/mL)
- MIC80 [1]: 0.6 µM (≈ 0.423 µg/mL)
- MIC80 [2]: 0.06 µM (≈ 0.0423 µg/mL)
- MIC80 [4]: 1.25 µM (≈ 0.882 µg/mL)
- MIC80 [5]: 2.5 µM (≈ 1.76 µg/mL)
- MIC80 [6]: 0.15 µM (≈ 0.106 µg/mL)
- MIC80 [7]: 2.5 µM (≈ 1.76 µg/mL)
- MIC80 [8]: 1.25 µM (≈ 0.882 µg/mL)
- MIC80 [9]: 10 µM (≈ 7.06 µg/mL)
- MIC80 [10]: 0.6 µM (≈ 0.423 µg/mL)
- MIC80 [11]: 0.6 µM (≈ 0.423 µg/mL)
- MIC80 [12]: 2.5 µM (≈ 1.76 µg/mL)
- MIC80 (Candida albicans SC5314 [13]): 0.125 µM (≈ 0.0882 µg/mL)
- MIC80 [14]: 0.6 µM (≈ 0.423 µg/mL)
- MIC80 [15]: 0.6 µM (≈ 0.423 µg/mL)
- MIC80 [16]: 0.6 µM (≈ 0.423 µg/mL)
- MIC80 [17]: 5 µM (≈ 3.53 µg/mL)
SMILES: CCC(C)n1ncn(-c2ccc(N3CCN(c4ccc(OCC5COC(Cn6cncn6)(c6ccc(Cl)cc6Cl)O5)cc4)CC3)cc2)c1=O (stereo not shown) [ITC, itraconazole]
- MFC (Fusarium solani 243G2): 5 µM (≈ 3.53 µg/mL)
- MFC [1]: 2.5 µM (≈ 1.76 µg/mL)
- MFC [2]: > 10 µM
- MFC [3]: 1.25 µM (≈ 0.882 µg/mL)
- MIC80 [3]: 0.3 µM (≈ 0.212 µg/mL)
- MFC [4]: 10 µM (≈ 7.06 µg/mL)
- MFC [5]: 5 µM (≈ 3.53 µg/mL)
- MFC [6]: 0.6 µM (≈ 0.423 µg/mL)
- MFC [7]: 5 µM (≈ 3.53 µg/mL)
- MFC [8]: > 10 µM
- MFC [9]: > 10 µM
- MFC [10]: 2.5 µM (≈ 1.76 µg/mL)
- MFC [11]: 0.6 µM (≈ 0.423 µg/mL)
- MFC [12]: 1.25 µM (≈ 0.882 µg/mL)
- MFC (Candida albicans SC5314 [13]): > 10 µM
- MFC [14]: 5 µM (≈ 3.53 µg/mL)
- MFC [15]: > 10 µM
- MFC [16]: > 10 µM
- MFC [17]: > 10 µM

- MIC80 (Fusarium solani 243G2): 0.15 µM (≈ 0.164 µg/mL)
- MIC80 [1]: 0.125 µM (≈ 0.137 µg/mL)
- MIC80 [2]: 0.03 µM (≈ 0.0328 µg/mL)
- MIC80 [4]: > 10 µM
- MIC80 [5]: 0.06 µM (≈ 0.0656 µg/mL)
- MIC80 [6]: > 10 µM
- MIC80 [7]: 5 µM (≈ 5.47 µg/mL)
- MIC80 [8]: > 10 µM
- MIC80 [9]: > 10 µM
- MIC80 [10]: 0.15 µM (≈ 0.164 µg/mL)
- MIC80 [11]: > 10 µM
- MIC80 [12]: > 10 µM
- MIC80 (Candida albicans SC5314 [13]): 0.03 µM (≈ 0.0328 µg/mL)
- MIC80 [14]: 0.3 µM (≈ 0.328 µg/mL)
- MIC80 [15]: > 10 µM
- MIC80 [16]: 0.03 µM (≈ 0.0328 µg/mL)
- MIC80 [17]: 0.07 µM (≈ 0.0765 µg/mL)
SMILES: CC[C@H](C)C[C@H](C)CCCCCCCCC(=O)N[C@H]1C[C@@H](O)[C@@H](NCCN)NC(=O)[C@@H]2[C@@H](O)CCN2C(=O)[C@H]([C@H](O)CCN)NC(=O)[C@H]([C@H](O)[C@@H](O)c2ccc(O)cc2)NC(=O)[C@@H]2C[C@@H](O)CN2C(=O)[C@H]([C@@H](C)O)NC1=O [CASP, caspofungin]
- MFC (Fusarium solani 243G2): > 10 µM
- MFC [1]: > 10 µM
- MFC [2]: 5 µM (≈ 5.47 µg/mL)
- MFC [3]: > 10 µM
- MIC80 [3]: 0.06 µM (≈ 0.0656 µg/mL)
- MFC [4]: > 10 µM
- MFC [5]: > 10 µM
- MFC [6]: > 10 µM
- MFC [7]: 5 µM (≈ 5.47 µg/mL)
- MFC [8]: > 10 µM
- MFC [9]: > 10 µM
- MFC [10]: 0.3 µM (≈ 0.328 µg/mL)
- MFC [11]: > 10 µM
- MFC [12]: > 10 µM
- MFC (Candida albicans SC5314 [13]): 0.625 µM (≈ 0.683 µg/mL)
- MFC [14]: 1.25 µM (≈ 1.37 µg/mL)
- MFC [15]: > 10 µM
- MFC [16]: 0.15 µM (≈ 0.164 µg/mL)
- MFC [17]: > 10 µM

SMILES: N#Cc1c[nH]cc1-c1cccc2c1OC(F)(F)O2 [Fludioxonil, fludioxonil]
- MFC (Alternaria brassicae): 2.5 µM (≈ 0.62 µg/mL)
- MIC (Alternaria brassicae): 0.625 µM (≈ 0.155 µg/mL)
- MFC (P. glomerata): > 20 µM
- MIC (P. glomerata): > 20 µM
- MIC (P. glomerata; P. glomerata, […]): no activity in the range tested
- MFC (Alternaria brassicicola): > 20 µM
- MIC (Alternaria brassicicola): 1.25 µM (≈ 0.31 µg/mL)
- MFC (Alternaria tennuissiema): 1.25 µM (≈ 0.31 µg/mL)
- MIC (Alternaria tennuissiema): 1.25 µM (≈ 0.31 µg/mL)
- MFC (Fusarium tricinctum): > 20 µM
- MIC (Fusarium tricinctum): 1.25 µM (≈ 0.31 µg/mL)
- MFC (Fusarium oxysporum): > 20 µM
- MIC (Fusarium oxysporum): 5 µM (≈ 1.24 µg/mL)
- MFC (Mycosphaerella populorum): > 20 µM
- MIC (Mycosphaerella populorum): 1.25 µM (≈ 0.31 µg/mL)
- MFC (Nodulosporium spp.): > 20 µM
- MIC (Nodulosporium spp.): 0.625 µM (≈ 0.155 µg/mL)

SMILES: C[C@@H]1C/C=C/C=C/C=C/C=C/[C@H](O[C@@H]2O[C@H](C)[C@@H](O)[C@H](N)[C@@H]2O)C[C@@H]2O[C@](O)(C[C@@H](O)C[C@H]3O[C@@H]3/C=C/C(=O)O1)C[C@H](O)[C@H]2C(=O)O [Natamycin, natamycin]
- CFU (C. albicans SC5314 Flu^R): 0 CFU
- antifungal activity (fungal growth/infection), in words [18]: inhibited the growth; also recorded: reduced the fungal burden
- CFU [18]: 0 CFU
- antifungal activity (fungal growth/infection), in words (Candida albicans SC5314 [19]): inhibited the growth; also recorded: reduced the infection
- CFU (Candida albicans SC5314 [19]): 0 CFU

SMILES: OC(Cn1cncn1)(Cn1cncn1)c1ccc(F)cc1F [Fluconazole, fluconazole]
- CFU (C. albicans SC5314 Flu^R): 2.2 ± 0.9 × 10^5 CFU
- antifungal activity (fungal growth/infection), in words [18]: did not inhibit the growth
- antifungal activity (fungal growth/infection), in words ([18]; listed as fluconazole): unable to fully inhibit the fungus
- CFU [18]: 2.0 ± 1.0 × 10^4 CFU
- antifungal activity (fungal growth/infection), in words (Candida albicans SC5314 [19]): reduced the infection
- CFU (Candida albicans SC5314 [19]): 13.7 ± 19.3 CFU
